Experimental data reported in patent US9693556B2, “Herbicidal pyridazinone derivatives” (SYNGENTA LIMITED, priority 2011, dated 2017).

Experiments:
Format in all cases: in vivo
Setaria faberi (SETFA) [1] = experiment: Pre-emergence herbicidal glasshouse test on Setaria faberi; settings: pre-emergence; 1000 g/h; evaluated after 13 days
In short: (§1)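 Application rate 1000 g/h, formulated in acetone/water (50:50) with 0.5% Tween 20 and sprayed onto pots sown 1 day (pre-emergence) or 8 days (post-emergence) earlier. Evaluation at 13 days rated damage from 1 (0-19%) to 5 (80-100%).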

[2] = test system: Echinochloa crus-galli (ECHCG); experiment: Post-emergence herbicidal glasshouse test on Echinochloa crus-galli; settings: post-emergence; 1000 g/h; evaluated after 13 days
In short: as §1

[3] = test system: Ipomoea hederacea (IPOHE); experiment: Pre-emergence herbicidal glasshouse test on Ipomoea hederacea; settings: pre-emergence; 1000 g/h; evaluated after 13 days
In short: as §1

Setaria faberi (SETFA) [4] = experiment: Post-emergence herbicidal glasshouse test on Setaria faberi; settings: post-emergence; 1000 g/h; evaluated after 13 days
In short: as §1

[5] = test system: Amaranthus retoflexus (AMARE); experiment: Pre-emergence herbicidal glasshouse test on Amaranthus retoflexus; settings: pre-emergence; 1000 g/h; evaluated after 13 days
In short: as §1

Solanum nigrum (SOLNI) [6] = experiment: Pre-emergence herbicidal glasshouse test on Solanum nigrum; settings: pre-emergence; 1000 g/h; evaluated after 13 days
In short: as §1

Solanum nigrum (SOLNI) [7] = experiment: Post-emergence herbicidal glasshouse test on Solanum nigrum; settings: post-emergence; 1000 g/h; evaluated after 13 days
In short: as §1

[8] = test system: Ipomoea hederacea (IPOHE); experiment: Post-emergence herbicidal glasshouse test on Ipomoea hederacea; settings: post-emergence; 1000 g/h; evaluated after 13 days
In short: as §1

[9] = test system: Echinochloa crus-galli (ECHCG); experiment: Pre-emergence herbicidal glasshouse test on Echinochloa crus-galli; settings: pre-emergence; 1000 g/h; evaluated after 13 days
In short: as §1

[10] = test system: Alopecurus myosuroides (ALOMY); experiment: Pre-emergence herbicidal glasshouse test on Alopecurus myosuroides; settings: pre-emergence; 1000 g/h; evaluated after 13 days
In short: as §1

[11] = test system: Alopecurus myosuroides (ALOMY); experiment: Post-emergence herbicidal glasshouse test on Alopecurus myosuroides; settings: post-emergence; 1000 g/h; evaluated after 13 days
In short: as §1

[12] = test system: Amaranthus retoflexus (AMARE); experiment: Post-emergence herbicidal glasshouse test on Amaranthus retoflexus; settings: post-emergence; 1000 g/h; evaluated after 13 days
In short: as §1

Row | Structure (SMILES) | PRE Application SETFA herbicidal damage (five point scale) (Setaria faberi (SETFA) [1]) | POST Application ECHCG herbicidal damage (five point scale) [2] | PRE Application IPOHE herbicidal damage (five point scale) [3] | POST Application SETFA herbicidal damage (five point scale) (Setaria faberi (SETFA) [4]) | PRE Application AMARE herbicidal damage (five point scale) [5] | PRE Application SOLNI herbicidal damage (five point scale) (Solanum nigrum (SOLNI) [6]) | POST Application SOLNI herbicidal damage (five point scale) (Solanum nigrum (SOLNI) [7]) | POST Application IPOHE herbicidal damage (five point scale) [8] | PRE Application ECHCG herbicidal damage (five point scale) [9] | PRE Application ALOMY herbicidal damage (five point scale) [10] | POST Application ALOMY herbicidal damage (five point scale) [11] | POST Application AMARE herbicidal damage (five point scale) [12]
1 | COCc1ccc(-c2cnn(C)c(=O)c2O)c(S(C)(=O)=O)c1 [Compound 2.040] | 4 (4=60-79% damage) | 5 (5=80-100% damage) | 3 (3=40-59% damage) | 5 (5=80-100% damage) | 5 (5=80-100% damage) | 5 (5=80-100% damage) | 5 (5=80-100% damage) | 5 (5=80-100% damage) | 5 (5=80-100% damage) | 5 (5=80-100% damage) | 5 (5=80-100% damage) | 5 (5=80-100% damage)
2 | COc1nn(C)c(=O)c(O)c1-c1ccc(C(F)(F)F)cc1S(C)(=O)=O [Compound 2.041] | 5 (5=80-100% damage) | 5 (5=80-100% damage) | 5 (5=80-100% damage) | 5 (5=80-100% damage) | 5 (5=80-100% damage) | 5 (5=80-100% damage) | 5 (5=80-100% damage) | 5 (5=80-100% damage) | 5 (5=80-100% damage) | 5 (5=80-100% damage) | 5 (5=80-100% damage) | 5 (5=80-100% damage)
3 | CC(C)OCc1ccc(-c2cnn(C)c(=O)c2O)c(S(C)(=O)=O)c1 [Compound 2.043] | 1 (1=0-19% damage) | 5 (5=80-100% damage) | 2 (2=20-39% damage) | 4 (4=60-79% damage) | 5 (5=80-100% damage) | 5 (5=80-100% damage) | 5 (5=80-100% damage) | 5 (5=80-100% damage) | 5 (5=80-100% damage) | 3 (3=40-59% damage) | 3 (3=40-59% damage) | 5 (5=80-100% damage)
4 | Cn1ncc(-c2ccc(C(F)(F)F)cc2S(=O)(=O)Cc2ccccc2)c(O)c1=O [Compound 2.047] | 1 (1=0-19% damage) | 5 (5=80-100% damage) | 1 (1=0-19% damage) | 3 (3=40-59% damage) | 2 (2=20-39% damage) | 4 (4=60-79% damage) | 5 (5=80-100% damage) | 4 (4=60-79% damage) | 5 (5=80-100% damage) | 1 (1=0-19% damage) | 3 (3=40-59% damage) | 5 (5=80-100% damage)
5 | Cn1ncc(-c2ccc(C(F)(F)F)cc2S(=O)(=O)N2CCOCC2)c(O)c1=O [Compound 2.049] | 2 (2=20-39% damage) | 5 (5=80-100% damage) | 4 (4=60-79% damage) | 1 (1=0-19% damage) | 5 (5=80-100% damage) | 5 (5=80-100% damage) | 5 (5=80-100% damage) | 5 (5=80-100% damage) | 5 (5=80-100% damage) | 1 (1=0-19% damage) | 1 (1=0-19% damage) | 5 (5=80-100% damage)
6 | CCOc1nn(C)c(=O)c(O)c1-c1ccc(C(F)(F)F)cc1S(C)(=O)=O [Compound 2.050] | 5 (5=80-100% damage) | 5 (5=80-100% damage) | 5 (5=80-100% damage) | 5 (5=80-100% damage) | 5 (5=80-100% damage) | 5 (5=80-100% damage) | 5 (5=80-100% damage) | 5 (5=80-100% damage) | 5 (5=80-100% damage) | 5 (5=80-100% damage) | 5 (5=80-100% damage) | 5 (5=80-100% damage)
7 | CCCOc1nn(C)c(=O)c(O)c1-c1ccc(C(F)(F)F)cc1S(C)(=O)=O [Compound 2.051, 4-hydroxy-2-methyl-5-[2-methylsulfonyl-4-(trifluoromethyl)phenyl]-6-propoxy-pyridazin-3-one] | 3 (3=40-59% damage) | 5 (5=80-100% damage) | 4 (4=60-79% damage) | 5 (5=80-100% damage) | 5 (5=80-100% damage) | 5 (5=80-100% damage) | 5 (5=80-100% damage) | 5 (5=80-100% damage) | 5 (5=80-100% damage) | 5 (5=80-100% damage) | 5 (5=80-100% damage) | 5 (5=80-100% damage)
8 | CC(C)Oc1nn(C)c(=O)c(O)c1-c1ccc(C(F)(F)F)cc1S(C)(=O)=O [Compound 2.052] | 3 (3=40-59% damage) | 5 (5=80-100% damage) | 4 (4=60-79% damage) | 5 (5=80-100% damage) | 5 (5=80-100% damage) | 5 (5=80-100% damage) | 5 (5=80-100% damage) | 5 (5=80-100% damage) | 5 (5=80-100% damage) | 4 (4=60-79% damage) | 5 (5=80-100% damage) | 5 (5=80-100% damage)
